Experimental findings from patent publication US20260216164A1, “INDOLE COMPOUND DECOMPOSING IKZF2, AND USE THEREOF” (KOREA RESEARCH INSTITUTE OF CHEMICAL TECHNOLOGY, priority 2023, published 2026) are described below.

This experiment deals with Helios (IKZF2) (Homo sapiens, UniProt Q96SW2+Q9UKS7). Description: Screening of Helios protein degraders using Nano-Glo HiBiT cell line (HiBiT-IKZF2). It is filed as cell-based. As to conditions: 6 hours, HiBiT-Helios knock-in Jurkat cells; for remaining activity at 1 µM: compound 1 μM, read-out: HiBiT-IKZF2 Residual amount of Helios (%) 1 μM; for remaining activity at 10 µM: compound 10 μM, read-out: HiBiT-IKZF2 Residual amount of Helios (%) 10 μM. The protocol: To observe intracellular degradation of Helios, the Nano-Glo HiBiT detection system (Promega) was employed. […] The cells expressing Helios fused with HiBiT were validated using the Nano-Glo HiBiT detection system (Promega) according to a predetermined protocol, isolated as single cells, and cultured in complete medium to establish a monoclonal cell line.
Helios (IKZF2), sequence (Q9UKS7 whole entry, the tested form may be a part): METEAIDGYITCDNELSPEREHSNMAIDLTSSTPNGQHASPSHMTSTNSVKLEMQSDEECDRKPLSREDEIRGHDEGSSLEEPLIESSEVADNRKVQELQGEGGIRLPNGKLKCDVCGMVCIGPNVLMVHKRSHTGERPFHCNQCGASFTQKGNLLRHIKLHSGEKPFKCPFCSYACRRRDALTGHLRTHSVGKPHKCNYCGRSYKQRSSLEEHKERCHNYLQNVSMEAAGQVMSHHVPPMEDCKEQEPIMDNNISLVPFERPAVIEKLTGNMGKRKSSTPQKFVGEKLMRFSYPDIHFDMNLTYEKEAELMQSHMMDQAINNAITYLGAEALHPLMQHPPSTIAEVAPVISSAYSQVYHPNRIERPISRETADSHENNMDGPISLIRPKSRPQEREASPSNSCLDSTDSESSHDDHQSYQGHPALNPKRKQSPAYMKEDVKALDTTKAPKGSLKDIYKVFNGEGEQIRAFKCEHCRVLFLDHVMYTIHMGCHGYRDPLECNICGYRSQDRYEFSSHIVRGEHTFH
Helios (IKZF2), sequence (Q96SW2 whole entry, the tested form may be a part): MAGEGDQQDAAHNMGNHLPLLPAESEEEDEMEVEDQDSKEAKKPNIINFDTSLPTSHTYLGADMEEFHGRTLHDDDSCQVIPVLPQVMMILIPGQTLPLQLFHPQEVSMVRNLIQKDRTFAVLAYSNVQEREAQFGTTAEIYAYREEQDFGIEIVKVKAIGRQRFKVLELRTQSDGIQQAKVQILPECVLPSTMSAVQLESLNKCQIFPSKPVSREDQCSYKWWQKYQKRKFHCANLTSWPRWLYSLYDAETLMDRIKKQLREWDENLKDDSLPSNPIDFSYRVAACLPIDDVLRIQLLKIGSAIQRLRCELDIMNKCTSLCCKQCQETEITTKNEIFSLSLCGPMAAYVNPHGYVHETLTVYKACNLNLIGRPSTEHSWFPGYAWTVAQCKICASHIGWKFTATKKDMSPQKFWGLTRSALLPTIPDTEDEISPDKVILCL
Helios (IKZF2), sequence (Q16531 whole entry partner, the tested form may be a part): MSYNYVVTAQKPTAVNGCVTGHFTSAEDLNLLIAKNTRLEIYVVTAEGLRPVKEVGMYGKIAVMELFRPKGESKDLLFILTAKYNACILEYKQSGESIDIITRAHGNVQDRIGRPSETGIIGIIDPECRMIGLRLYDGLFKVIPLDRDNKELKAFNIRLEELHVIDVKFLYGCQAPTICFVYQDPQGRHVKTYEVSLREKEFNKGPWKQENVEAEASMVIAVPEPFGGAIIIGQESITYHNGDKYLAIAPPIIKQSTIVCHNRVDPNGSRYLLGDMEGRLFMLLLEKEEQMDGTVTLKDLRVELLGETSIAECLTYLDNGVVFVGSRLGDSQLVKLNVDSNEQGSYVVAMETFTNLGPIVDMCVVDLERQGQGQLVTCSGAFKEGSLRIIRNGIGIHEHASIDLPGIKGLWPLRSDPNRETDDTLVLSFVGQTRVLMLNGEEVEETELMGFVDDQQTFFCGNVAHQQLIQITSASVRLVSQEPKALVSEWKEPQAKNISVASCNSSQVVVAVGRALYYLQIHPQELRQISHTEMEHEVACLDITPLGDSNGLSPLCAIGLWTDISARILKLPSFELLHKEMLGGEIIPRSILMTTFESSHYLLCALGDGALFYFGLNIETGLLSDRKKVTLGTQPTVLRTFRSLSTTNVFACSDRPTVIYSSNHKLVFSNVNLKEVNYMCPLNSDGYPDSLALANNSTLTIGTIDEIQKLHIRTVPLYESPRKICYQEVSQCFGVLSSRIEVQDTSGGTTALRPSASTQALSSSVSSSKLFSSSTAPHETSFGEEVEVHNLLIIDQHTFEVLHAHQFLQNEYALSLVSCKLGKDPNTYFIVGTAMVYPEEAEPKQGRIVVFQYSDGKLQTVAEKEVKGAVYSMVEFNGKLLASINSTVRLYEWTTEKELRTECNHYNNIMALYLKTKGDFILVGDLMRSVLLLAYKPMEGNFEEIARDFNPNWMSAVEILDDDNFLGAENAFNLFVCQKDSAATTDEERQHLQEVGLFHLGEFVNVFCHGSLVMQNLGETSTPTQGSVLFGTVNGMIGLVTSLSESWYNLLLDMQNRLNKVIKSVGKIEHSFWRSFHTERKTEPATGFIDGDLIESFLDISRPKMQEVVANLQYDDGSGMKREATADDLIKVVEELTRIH
After 6 hours, the Nano-Glo HiBiT detection reagent was added to each well in an equal volume to the cell culture medium and incubated at room temperature for 10 minutes. Following incubation, the HiBiT luminescence signal was measured using a microplate reader (Perkin Elmer).

For `Cc1c(C(=O)N2CCC(c3ccc4c(c3)CN(C3CCC(=O)NC3=O)C4=O)CC2)[nH]c2cc(Cl)c(Cl)cc12` (stereo not drawn) [Compound 72, 3-(5-(1-(5,6-dichloro-3-methyl-1H-indole-2-carbonyl)piperidin-4-yl)-1-oxoinsoindolin-2-yl)piperidine-2,6-dione], the remaining activity at 1 µM worked out at 43.3% and the remaining activity at 10 µM was found to be 34.3%. `O=C1CCC(N2Cc3cc(C4CCN(C(=O)c5cc6ccc(F)cc6[nH]5)CC4)ccc3C2=O)C(=O)N1` (stereo not drawn) [Compound 7, 3-(5-(1-(6-fluoro-1H-indole-2-carbonyl)piperidin-4-yl)-1-oxoinsoindolin-2-yl)piperidine-2,6-dione]: the remaining activity at 1 µM amounted to 93.3% and the remaining activity at 10 µM was found to be 98.6%.

Regarding `O=C1CCC(N2Cc3cc(C4CCN(C(=O)c5[nH]c6ccccc6c5Br)CC4)ccc3C2=O)C(=O)N1` (stereo not drawn) [Compound 36, 3-(5-(1-(3-bromo-1H-indole-2-carbonyl)piperidin-4-yl)-1-oxoinsoindolin-2-yl)piperidine-2,6-dione], the remaining activity at 1 µM was determined as 50.9% and the remaining activity at 10 µM is 40.6%.

For `O=C1CCC(N2Cc3cc(C=C4CCN(C(=O)c5cc6ccccc6[nH]5)CC4)ccc3C2=O)C(=O)N1` (stereo not drawn) [Compound 24, 3-(5-((1-(1H-indole-2-carbonyl)piperidin-4-ylidene)methyl)-1-oxoinsoindolin-2-yl)piperidine-2,6-dione], the remaining activity at 1 µM was found to be 93.7% and the remaining activity at 10 µM stood at 88.2%. For `Cc1c(C(=O)N2CCC(c3ccc4c(c3)CN(C3CCC(=O)NC3=O)C4=O)CC2)[nH]c2cc(N)ccc12` (stereo not drawn) [Compound 61, 3-(5-(1-(6-amino-3-methyl-1H-indole-2-carbonyl)piperidin-4-yl)-1-oxoinsoindolin-2-yl)piperidine-2,6-dione], the remaining activity at 10 µM was 35%. On to `O=C1CCC(N2Cc3cc(C4CCN(C(=O)c5cc6cc(F)ccc6[nH]5)CC4)ccc3C2=O)C(=O)N1` (stereo not drawn) [Compound 17, 3-(5-(1-(5-fluoro-1H-indole-2-carbonyl)piperidin-4-yl)-1-oxoinsoindolin-2-yl)piperidine-2,6-dione], for which the remaining activity at 1 µM came to 95% and the remaining activity at 10 µM amounted to 96.6%. On to `COc1ccc2c(CN3CCOCC3)c(C(=O)N3CCC(c4ccc5c(c4)CN(C4CCC(=O)NC4=O)C5=O)CC3)[nH]c2c1` (stereo not drawn) [Compound 110, 3-(5-(1-(6-methoxy-3-(morpholinomethyl)-1H-indole-2-carbonyl)piperidin-4-yl)-1-oxoinsoindolin-2-yl)piperidine-2,6-dione], for which the remaining activity at 1 µM worked out at 14.2%.

As to `Cc1c(C(=O)N2CCC(c3ccc4c(c3)CN(C3CCC(=O)NC3=O)C4=O)C2)[nH]c2cc(Cl)ccc12` (stereo not drawn) [Compound 67, 3-(5-(1-(6-chloro-3-methyl-1H-indole-2-carbonyl)pyrrolidin-3-yl)-1-oxoinsoindolin-2-yl)piperidine-2,6-dione], the remaining activity at 10 µM is 78.7%.

For the compound `Cc1cccc2[nH]c(C(=O)N3CCC(c4ccc5c(c4)CN(C4CCC(=O)NC4=O)C5=O)CC3)cc12` (stereo not drawn) [Compound 14, 3-(5-(1-(4-methyl-1H-indole-2-carbonyl)piperidin-4-yl)-1-oxoinsoindolin-2-yl)piperidine-2,6-dione], the remaining activity at 1 µM was 89% and the remaining activity at 10 µM came to 98.4%. `O=C1CCC(N2Cc3cc(C=C4CCN(C(=O)c5cc6ccc(Cl)cc6[nH]5)CC4)ccc3C2=O)C(=O)N1` (stereo not drawn) [Compound 26, 3-(5-((1-(6-chloro-1H-indole-2-carbonyl)piperidin-4-ylidene)methyl)-1-oxoinsoindolin-2-yl)piperidine-2,6-dione]: the remaining activity at 1 µM was 96% and the remaining activity at 10 µM was 97.6%. Consider `Cc1c(C(=O)N2CC=C(c3ccc4c(c3)CN(C3CCC(=O)NC3=O)C4=O)C2)[nH]c2cc(Cl)ccc12` (stereo not drawn) [Compound 65, 3-(5-(1-(6-chloro-3-methyl-1H-indole-2-carbonyl)-2,5-dihydro-1H-pyrrol-3-yl)-1-oxoinsoindolin-2-yl)piperidine-2,6-dione], for which the remaining activity at 10 µM amounted to 109%.
